{"source": "patent USRE48461E1", "about": "“Modulation of androgen receptor expression” (Ionis Pharmaceuticals, Inc., priority 2012, dated 2021)", "key": {"AR mRNA [1]": {"test_system": "AR mRNA", "experiment": "Antisense inhibition of human AR in HuVEC cells, single concentration (electroporation, qRT-PCR RTS3559)", "format": "cell-based", "in_short": "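AR mRNA levels were measured with human primer-probe set RTS3559 and adjusted for total RNA (RIBOGREEN). Cells were HuVEC, with each antisense oligonucleotide delivered by electroporation at one concentration.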"}, "AR mRNA [2]": {"test_system": "AR mRNA", "experiment": "Dose-dependent antisense inhibition of human AR in HuVEC cells (electroporation, qRT-PCR RTS3559, IC50)", "format": "cell-based", "conditions": "HuVEC", "in_short": "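HuVEC cells dosed with antisense oligonucleotides by electroporation and treated approximately 16 hours. AR mRNA quantified by real-time qPCR with primer probe set RTS3559 and normalised to total RNA by RIBOGREEN; IC50 from dose-response.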"}, "[3]": {"conditions": "Table 30, electroporation, approximately 16 hours"}, "[4]": {"conditions": "Table 32, electroporation, approximately 16 hours"}, "[5]": {"conditions": "Table 29, electroporation, approximately 16 hours"}, "[6]": {"conditions": "Table 35, electroporation, approximately 16 hours"}, "[7]": {"conditions": "Table 36, electroporation, approximately 16 hours"}}, "note": "Oligonucleotides are written 5' to 3', each unit as a sugar letter and its base; * is a phosphorothioate linkage, no mark a phosphodiester; rarer units and linkages stand in square brackets, end groups in braces. Plain capitals give the bases only. e = 2'-O-(2-methoxyethyl) (MOE); k = constrained ethyl (cEt); [5mC] = 5-methylcytosine; d = 2'-deoxy (DNA)"}
{"substance": "569228 (antisense eT*eT*kG*kA*kT*dT*dT*dA*dA*dT*dG*dG*kT*kT*kG*e[5mC]) [compound 569228]", "values": [{"measurement": "% inhibition", "setting": "AR mRNA [1]; 250 nM ASO, ~24 h, Table 7", "result": 67, "unit": "%"}, {"measurement": "percent inhibition of AR", "setting": "AR mRNA [2]; 31.25 nM, ~16 h, Table 8", "result": 26, "unit": "%"}, {"measurement": "percent inhibition of AR", "setting": "AR mRNA [2]; 62.5 nM, ~16 h, Table 8", "result": 43, "unit": "%"}, {"measurement": "percent inhibition of AR", "setting": "AR mRNA [2]; 62.5 nM, ~16 h, Table 10", "result": 29, "unit": "%"}, {"measurement": "percent inhibition of AR", "setting": "AR mRNA [2]; 125.0 nM, ~16 h, Table 8", "result": 62, "unit": "%"}, {"measurement": "percent inhibition of AR", "setting": "AR mRNA [2]; 125.0 nM, ~16 h, Table 10", "result": 44, "unit": "%"}, {"measurement": "percent inhibition of AR", "setting": "AR mRNA [2]; 500.0 nM, ~16 h, Table 8", "result": 88, "unit": "%"}, {"measurement": "percent inhibition of AR", "setting": "AR mRNA [2]; 500.0 nM, ~16 h, Table 10", "result": 77, "unit": "%"}, {"measurement": "percent inhibition of AR", "setting": "AR mRNA [2]; 1000.0 nM, ~16 h, Table 8", "result": 92, "unit": "%"}, {"measurement": "percent inhibition of AR", "setting": "AR mRNA [2]; 1000.0 nM, ~16 h, Table 10", "result": 87, "unit": "%"}, {"measurement": "IC50", "setting": "AR mRNA [2]; ~16 h, Table 8", "result": 0.09, "unit": "µM"}, {"measurement": "IC50", "setting": "AR mRNA [2]; ~16 h, Table 10", "result": 0.158, "unit": "µM"}]}
{"substance": "549381 (kG*k[5mC]*k[5mC]*dG*d[5mC]*d[5mC]*dA*dG*dG*dG*dT*dA*d[5mC]*k[5mC]*kA*k[5mC]; antisense) [compound 549381]", "values": [{"measurement": "% inhibition", "setting": "AR mRNA [1]; 500 nM ASO, electroporation, ~24 h, Table 1", "result": 89, "unit": "%"}, {"measurement": "percent inhibition of AR", "setting": "AR mRNA [2]; 55.6 nM, ~16 h, Table 3", "result": 14, "unit": "%"}, {"measurement": "percent inhibition of AR", "setting": "AR mRNA [2]; 166.7 nM, ~16 h, Table 3", "result": 33, "unit": "%"}, {"measurement": "percent inhibition of AR", "setting": "AR mRNA [2]; 500.0 nM, ~16 h, Table 3", "result": 71, "unit": "%"}, {"measurement": "percent inhibition of AR", "setting": "AR mRNA [2]; 1500.0 nM, ~16 h, Table 3", "result": 91, "unit": "%"}, {"measurement": "IC50", "setting": "AR mRNA [2]; ~16 h, Table 3", "result": 0.261, "unit": "µM"}]}
{"substance": "583637 (antisense kA*kT*k[5mC]*dT*d[5mC]*dT*dG*dG*d[5mC]*dT*d[5mC]*d[5mC]*dG*k[5mC]*kA*k[5mC]) [compound 583637]", "values": [{"measurement": "% inhibition", "setting": "AR mRNA [1]; 500 nM ASO, ~24 h, Table 17", "result": 43, "unit": "%"}, {"measurement": "percent inhibition of AR, 46.9 nM", "setting": "AR mRNA [2]; [3]", "result": 22, "unit": "%"}, {"measurement": "percent inhibition of AR, 187.5 nM", "setting": "AR mRNA [2]; [3]", "result": 32, "unit": "%"}, {"measurement": "percent inhibition of AR, 750.0 nM", "setting": "AR mRNA [2]; [3]", "result": 59, "unit": "%"}, {"measurement": "percent inhibition of AR, 3000.0 nM", "setting": "AR mRNA [2]; [3]", "result": 75, "unit": "%"}, {"measurement": "IC50", "setting": "AR mRNA [2]; [3]", "result": 0.45, "unit": "µM"}]}
{"substance": "583787 (antisense kG*kG*kT*dG*d[5mC]*dT*dG*dG*d[5mC]*d[5mC]*dT*d[5mC]*dG*k[5mC]*kT*k[5mC]) [compound 583787]", "values": [{"measurement": "% inhibition", "setting": "AR mRNA [1]; Table 19, 500 nM oligonucleotide, electroporation, approximately 24 hours, relative to untreated control", "result": 37, "unit": "%"}, {"measurement": "percent inhibition of AR, 46.9 nM", "setting": "AR mRNA [2]; [4]", "result": 15, "unit": "%"}, {"measurement": "percent inhibition of AR, 187.5 nM", "setting": "AR mRNA [2]; [4]", "result": 31, "unit": "%"}, {"measurement": "percent inhibition of AR, 750.0 nM", "setting": "AR mRNA [2]; [4]", "result": 66, "unit": "%"}, {"measurement": "percent inhibition of AR, 3000.0 nM", "setting": "AR mRNA [2]; [4]", "result": 74, "unit": "%"}, {"measurement": "IC50", "setting": "AR mRNA [2]; [4]", "result": 0.43, "unit": "µM"}]}
{"substance": "583556 (antisense kA*kA*k[5mC]*dT*dT*d[5mC]*dA*d[5mC]*d[5mC]*dG*dA*dA*dG*kA*kG*kG) [compound 583556]", "values": [{"measurement": "% inhibition", "setting": "AR mRNA [1]; 500 nM ASO, ~24 h, Table 16", "result": 43, "unit": "%"}, {"measurement": "percent inhibition of AR, 46.9 nM", "setting": "AR mRNA [2]; [5]", "result": 19, "unit": "%"}, {"measurement": "percent inhibition of AR, 187.5 nM", "setting": "AR mRNA [2]; [5]", "result": 47, "unit": "%"}, {"measurement": "percent inhibition of AR, 750.0 nM", "setting": "AR mRNA [2]; [5]", "result": 68, "unit": "%"}, {"measurement": "percent inhibition of AR, 3000.0 nM", "setting": "AR mRNA [2]; [5]", "result": 66, "unit": "%"}, {"measurement": "IC50", "setting": "AR mRNA [2]; [5]", "result": 0.34, "unit": "µM"}]}
{"substance": "584148 (k[5mC]*kA*kT*dA*dT*dT*dA*dT*dT*dG*dT*dG*d[5mC]*kT*kG*k[5mC]; antisense) [compound 584148]", "values": [{"measurement": "% inhibition", "setting": "AR mRNA [1]; Table 24, 1,000 nM oligonucleotide, electroporation, approximately 24 hours, relative to untreated control", "result": 85, "unit": "%"}, {"measurement": "percent inhibition of AR, 46.9 nM", "setting": "AR mRNA [2]; [6]", "result": 16, "unit": "%"}, {"measurement": "percent inhibition of AR, 187.5 nM", "setting": "AR mRNA [2]; [6]", "result": 48, "unit": "%"}, {"measurement": "percent inhibition of AR, 750.0 nM", "setting": "AR mRNA [2]; [6]", "result": 79, "unit": "%"}, {"measurement": "percent inhibition of AR, 3000.0 nM", "setting": "AR mRNA [2]; [6]", "result": 95, "unit": "%"}, {"measurement": "IC50", "setting": "AR mRNA [2]; [6]", "result": 0.2, "unit": "µM"}]}
{"substance": "583728 (antisense kG*k[5mC]*kT*d[5mC]*dT*dG*dG*dA*dA*d[5mC]*dA*dG*dA*kT*kT*k[5mC]) [compound 583728]", "values": [{"measurement": "% inhibition", "setting": "AR mRNA [1]; 500 nM ASO, ~24 h, Table 18", "result": 45, "unit": "%"}, {"measurement": "percent inhibition of AR, 46.9 nM", "setting": "AR mRNA [2]; [3]", "result": 9, "unit": "%"}, {"measurement": "percent inhibition of AR, 187.5 nM", "setting": "AR mRNA [2]; [3]", "result": 48, "unit": "%"}, {"measurement": "percent inhibition of AR, 750.0 nM", "setting": "AR mRNA [2]; [3]", "result": 67, "unit": "%"}, {"measurement": "percent inhibition of AR, 3000.0 nM", "setting": "AR mRNA [2]; [3]", "result": 70, "unit": "%"}, {"measurement": "IC50", "setting": "AR mRNA [2]; [3]", "result": 0.4, "unit": "µM"}]}
{"substance": "584274 (kG*kT*kT*dA*dT*d[5mC]*dT*dT*dA*d[5mC]*dT*d[5mC]*dT*k[5mC]*k[5mC]*k[5mC]; antisense) [compound 584274]", "values": [{"measurement": "% inhibition", "setting": "AR mRNA [1]; Table 25, 1,000 nM oligonucleotide, electroporation, approximately 24 hours, relative to untreated control", "result": 70, "unit": "%"}, {"measurement": "percent inhibition of AR, 46.9 nM", "setting": "AR mRNA [2]; [7]", "result": 17, "unit": "%"}, {"measurement": "percent inhibition of AR, 187.5 nM", "setting": "AR mRNA [2]; [7]", "result": 36, "unit": "%"}, {"measurement": "percent inhibition of AR, 750.0 nM", "setting": "AR mRNA [2]; [7]", "result": 74, "unit": "%"}, {"measurement": "percent inhibition of AR, 3000.0 nM", "setting": "AR mRNA [2]; [7]", "result": 93, "unit": "%"}, {"measurement": "IC50", "setting": "AR mRNA [2]; [7]", "result": 0.23, "unit": "µM"}]}
